US9856259B2, “Heterocyclic compounds and uses thereof” (Plexxikon Inc., priority 2014, dated 2018)

What was measured:
MV-4-11 = assay: Oncology cell growth assay, MV-4-11 3 d growth; format: cell-based; conditions: Homo sapiens, MV4-11; MV-4-11 cells, 72 hours, CellTiter Glo; read-out: Cell activity (IC50 μM) MV-4-11 3 d-Growtb
Description: (§1) In this study, we test compounds in different cancer cell lines. MV-4-11 and MOLM-13 are AML cell lines harboring a MLL-AF4 and MLL-AF9 translocation, respectively. MM.1S is a multiple myeloma cell line. SK—N-AS, IMR-32 and SK-N-BE(2) are neuroblastoma cell lines. IMR-32 and SK-N-BE(2) cell lines harbor MYCN amplifications.
(§2) MV-4-11, MM.1S, IMR-32, SK-N-AS and SK-N-BE(2) were obtained from ATCC (IL, USA) and MOLM-13 were purchased from DSMZ (Braunschweig, German). Cells are cultured as recommended by their sources. For growth inhibition studies 3000 cells are seeded in wells of a 96-well plate in 75 μL of culture media. After several hours, growth media containing compounds of formula (I) are added to the wells. Compound at a maximal concentration of 5 mM was serially diluted 1:3 for a total of 8 point titration with DMSO as a control. A 1 μL aliquot of each dilution point is added to 249 μL growth media and 75 μL is added to each well containing cells, providing 10 μM compound at the maximum concentration point. The final concentration of DMSO in all wells is 0.2%. Cells are incubated for 72 hours, and 25 μL of CellTiter Glo Reagent (Promega Ga., USA) is added to each well. Plates are shaken for approximately 10 minutes and chemiluminescent signal is read on Tecan microplate reader. The measured luminescence correlates directly with cell number.
(§3) All data is normalized to the mean of eight DMSO high control wells on each plate. A four parameter curve fit of the following formula was then applied: Y=a+(b−a)/(1+(x/c)^d) Where ‘a’ is the minimum, ‘b’ is the maximum, ‘c’ is the pIC50 and ‘d’ is the Hill slope. […] Myc Reporter Assay

BRD4-BD12 = molecular target: T1, BRD4-BD12 (Homo sapiens, UniProt O60885); assay: Alphascreen binding assay, BRD4(1 2) H4; conditions: BRD4 dual bromodomains with acetylated Histone 4 peptide, read-out: Biochemical activity (IC50 μM) BRD4(1 2) H4
T1 construct: dual bromodomains (BRD4-BD12 (1-477), BRD4-BD12 (1-472)); six-His tag (N); made in house; host or cells: E. coli BL21-CodonPlus (DE3)
Description: Binding of compounds of formula (I) with bromodomain 2, 3 4 was assessed using Alphascreen binding assay. The inhibition of the interaction between bromodomain and its acetylated target protein (Filippakopoulos P et al. 2012) was measured quantitatively using recombinant BRD proteins, an acetylated Histone 4 peptide and AlphaScreen™ technology. In absence of inhibition the BRD protein bound to AlphaScreen™ nickel chelate acceptor beads can interact with the acetylated Histone 4 peptide which is immobilized by the AlphaScreen™ Streptavidin coated beads. This interaction brings donor and acceptor beads in proximity. The close proximity allows the singlet oxygen produced by laser excitation of the donor beads to reach the acceptor beads and generate a luminescence signal. BRD inhibitors result in a decrease in the proximity signal through an inhibition of the BRD acetylated peptide interaction.
Recombinant human bromodomains containing the N-terminal bromodomain (BRD2-BD1 (71-194), BRD3-BD1 (24-144) and BRD4-BD1 (44-164)) or dual bromodomains (BRD4-BD12 (1-477), BRD4-BD12 (1-472)) were prepared and purified as described in protein expression and purification session. The peptide is human Histone H41-21K5AcK8AcK12AcK16Ac-Biotin (Anaspec Calif., USA).
Protocol for BRD2, BRD3 and BRD4 assay: All components are prepared in buffer composed of 50 mM HEPES pH 7.5, 100 mM NaCl, 0.01% BSA, 0.01% Triton X-100, 2 mM DTT. 7 μL of Bromodomain protein and 7 μL of peptide are added to wells containing 1 μL of various concentrations of test compounds of formula (I) or DMSO vehicle in an Alphaplate (PerkinElmer Ga., USA) and incubated for 1 hour at room temperature. 4 μL donor and acceptor bead mixture is then added with final concentrations of 7.5 μg/ml. 30 minutes after bead addition, Alpha signal is read on the Envision spectrometer (λEx 680 nm, λEm 520-620 nm). Final concentrations of bromodomain proteins and peptide are as shown below.
All data was normalized to the mean of 16 high and 16 low control wells on each plate. A four parameter curve fit of the following formula was then applied: Y=a+(b−a)/(1+(x/c)^d) Where ‘a’ is the minimum, ‘b’ is the maximum, ‘c’ is the pIC50 and ‘d’ is the Hill slope. Protein Expression and Purification
Recombinant human bromodomains containing the N-terminal bromodomain (BRD2-BD1 (71-194), BRD3-BD1 (24-144) and BRD4-BD1 (44-164)) or dual bromodomains (BRD4-BD12 (1-477), BRD4-BD12 (1-472)) were expressed in E. coli cells (in a modified pET vector) with an N-terminal six-His tag and purified using a combination of both IMAC (Ni-affinity) and size exclusion chromatography steps.
Recombinant BRD proteins were expressed using the E. coli strain BL21-CodonPlus (DE3) (Agilent Technologies CA, USA). Cells were grown in Terrific Broth (TB) media to an OD600 of 1.2 at 37° C. at which temperature was reduced to 25° C., protein was induced with 1.0 mM IPTG for 12-18 hours and harvested by centrifugation at 8000×g for 20 minutes. Cells were re-suspended in 0.1M KPO4 pH 8.0, 250 mM NaCl, 10% Glycerol, 0.75% NP-40, 25 mM Imidazole, 5 mM BME with 0.2 mg/ml Lysosyme, 2.0 mM PMSF, 25 μg/ml DNAse I, incubated on ice for 30 minutes and lyzed with a cell disruptor (MicroFluidics MA, USA). The lysate was clarified by centrifugation at 20,000×g for 2 hours. The protein was captured with Ni-NTA resin (Life Technologies, USA). Contaminating proteins were washed off with 25 mM Tris-HCl pH 8.3, 250 mM NaCl, 12% Glycerol and 50 mM Imidazole. Following 3× wash steps, protein was eluted step wise using a 50 mM HEPES pH 7.5, 500 mM NaCl and 400 mM Imidazole. The protein was further purified using Gel Filtration column 26/600 Superdex 200 (GE Biosciences N.J., USA) in 50 mM HEPES pH 7.5, 250 mM NaCl. The protein was aliquoted and flash-frozen in liquid Nitrogen.

[1] = system: cancer cell lines / MV-4-11 Myc reporter cell line; assay: Bromodomain cell assays of Example 8 (at least one of them); format: cell-based; conditions: Homo sapiens, MV4-11; at least one of the bromodomain cell assays described in Example 8
Description: as §1, §2, §3
In MV-4-11 cells, BRD2, BRD3 and BRD4 bind to the promoter region of MYC and regulate its transcription (Dawson M A et al. 2011). The literature bromodomain inhibitor iBET 151 could disrupt BRD4 recruitment to the MYC promoter and subsequently downregulate c-myc transcription (Dawson M A et al. 2011). Myc protein is a transcription factor that heterodimerizes with an obligatory partner Max and regulates the transcription of genes important for cell proliferation, differentiation, and apoptosis. This Myc reporter assay is used to monitor the inhibitory effect of compound of formula (I) on Myc dependent gene expression. Effective compounds could have potential therapeutic effects in Myc-driven tumors.
The MV-4-11 Myc reporter cell line is established by infecting MV-4-11 with VSV-g pseudotyped lentivirus expressing the firefly luciferase gene under the control of a minimal (m) CMV promoter and tandem repeats of the E-box transcriptional response element (TRE) (Qiagen IL, USA) and selecting cells in 2.5 μg/ml Puromycin.
The MV-4-11 Myc reporter cell line is maintained in Iscove's Modified Dulbecco's Medium containing 10% FBS, 1% PenStep and 2.5 μg/ml Puromycin. Cells are incubated at 37° C. in a humidified atmosphere with 5% CO2. 25,000 cells are seeded in 96-well plate in 50 μL of culture media. After several hours, growth media containing 2× compounds are added to the wells. Compound at a maximal concentration of 5 mM is serially diluted 1:3 for a total of 8 point titration. A 1 μl aliquot of each dilution point is added to 249 μl growth media and 50 μl is added to each well containing cells, providing 10 μM compound at the maximum concentration point. DMSO treated cells serve as a high control and 10 μM JQ1 treated cells serve as a low control. Cells are incubated for a further 24 hours and 25 μL of CellTiter-Fluo Reagent (Promega Ga., USA) is added to each well. Plates are shaken for approximately 2 minutes and incubated at 37° C. for 0.5 hour. Fluorescence signal is read in a Tecan Plate reader (λex=400 nm, λcm=505 nm). 25 μL of One-Glo Reagent (Promega Ga., USA) is then added to the plates. Chemiluminescent signal is read on Tecan plate reader. Values from the wells with no cells are subtracted from all samples for background correction. […]

Compound | IC50 (MV-4-11) | IC50 (BRD4-BD12) | IC50 [1]
Cc1noc(C)c1-c1cnc2[nH]cc(CC3CCC(F)(F)CC3)c2n1 [Compound P-2077, 4-[7-[(4,4-difluorocyclohexyl)methyl]-5H-pyrrolo[2,3-b]pyrazin-2-yl]-3,5-dimethyl-isoxazole] | 1 to 10 µM | 1 to 10 µM | < 10 µM
Cc1noc(C)c1-c1cnc2c(n1)c(CC1CCC(F)(F)CC1)cn2-c1ccc(C(=O)O)cn1 [Compound P-2078, 6-[7-[(4,4-difluorocyclohexyl)methyl]-2-(3,5-dimethylisoxazol-4-yl)pyrrolo[2,3-b]pyrazin-5-yl]pyridine-3-carboxylic acid] | 1 to 10 µM | ≤ 1 µM | < 10 µM
Cc1noc(C)c1-c1cnc2c(I)cn([C@@H](C)c3ccccn3)c2n1 [Compound P-2056, 4-[7-iodo-5-[(1S)-1-(2-pyridyl)ethyl]pyrrolo[2,3-b]pyrazin-3-yl]-3,5-dimethyl-isoxazole] | ≤ 1 µM | ≤ 1 µM | < 10 µM
COC(=O)c1ccc(-c2nn(C(c3ccccc3)c3ccccn3)c3cc(-c4c(C)noc4C)ccc23)cc1 (stereo not drawn) [Compound P-2006, methyl 4-[6-(3,5-dimethylisoxazol-4-yl)-1-[phenyl(2-pyridyl)methyl]indazol-3-yl]benzoate] | ≤ 1 µM | ≤ 1 µM | < 10 µM
[2H]C([2H])(C1CCC(F)(F)CC1)n1cc(-c2ccc(C(=O)O)cc2)c2ncc(-c3c(C)noc3C)nc21 [Compound P-2044, 4-[5-[dideuterio-(4,4-difluorocyclohexyl)methyl]-3-(3,5-dimethylisoxazol-4-yl)pyrrolo[2,3-b]pyrazin-7-yl]benzoic acid] | ≤ 1 µM | ≤ 1 µM | < 10 µM
Cc1noc(C)c1-c1ccc2c(I)nn(C(c3ccccc3)c3ccccn3)c2c1 (stereo not drawn) [Compound P-2003, 4-[3-iodo-1-[phenyl(2-pyridyl)methyl]indazol-6-yl]-3,5-dimethyl-isoxazole] | ≤ 1 µM | ≤ 1 µM | < 10 µM
Cc1nnn(C)c1-c1cnc2c(-c3cnn(C)c3)nn(CC3CCC(F)(F)CC3)c2c1 [Compound P-2090, 1-[(4,4-difluorocyclohexyl)methyl]-6-(3,5-dimethyltriazol-4-yl)-3-(1-methylpyrazol-4-yl)pyrazolo[4,3-b]pyridine] | ≤ 1 µM | ≤ 1 µM | < 10 µM
COC(=O)C1(c2ccc(-c3cn([C@@H](C)c4ccccn4)c4nc(-c5c(C)noc5C)cnc34)cc2)CC1 [Compound P-2053, methyl 1-[4-[3-(3,5-dimethylisoxazol-4-yl)-5-[(1S)-1-(2-pyridyl)ethyl]pyrrolo[2,3-b]pyrazin-7-yl]phenyl]cyclopropanecarboxylate] | ≤ 1 µM | ≤ 1 µM | < 10 µM
Cc1noc(C)c1-c1cnc2c(c1)ncn2C(c1ccccc1)c1ccccn1 (stereo not drawn) [Compound P-2104, 3,5-dimethyl-4-[3-[phenyl(2-pyridyl)methyl]imidazo[4,5-b]pyridin-6-yl]isoxazole] | 10 to 200 µM | 1 to 10 µM | < 10 µM
[2H]C([2H])(C1CCC(F)(F)CC1)n1nc(-c2cnn(C(F)F)c2)c2ncc(-c3c(C)noc3C)cc21 [Compound P-2084, 4-[1-[dideuterio-(4,4-difluorocyclohexyl)methyl]-3-[1-(difluoromethyl)pyrazol-4-yl]pyrazolo[4,3-b]pyridin-6-yl]-3,5-dimethyl-isoxazole] | ≤ 1 µM | ≤ 1 µM | < 10 µM
Cc1noc(C)c1-c1cnc2c(-c3cnn(C(F)F)c3)nn(CC3CCC(F)(F)CC3)c2c1 [Compound P-2082, 4-[1-[(4,4-difluorocyclohexyl)methyl]-3-[1-(difluoromethyl)pyrazol-4-yl]pyrazolo[4,3-b]pyridin-6-yl]-3,5-dimethyl-isoxazole] | ≤ 1 µM | ≤ 1 µM | < 10 µM
Cc1noc(C)c1-c1cnc2c(-c3ccc(C(=O)O)cc3)cn([C@@H](C)c3ccccn3)c2n1 [Compound P-2050, 4-[3-(3,5-dimethylisoxazol-4-yl)-5-[(1S)-1-(2-pyridyl)ethyl]pyrrolo[2,3-b]pyrazin-7-yl]benzoic acid] | ≤ 1 µM | ≤ 1 µM | < 10 µM
